Test results taken from US11311599B2, “β-1,3-glucan-peptide complex: compositions and methods” (priority 2018, dated 2022).
No end group written: not given here.

Tests used:
NADPH oxidase [1] = experiment: NADPH oxidase activity in LPS-stimulated RAW2647 cells (lucigenin-ECL superoxide); type: cell-based, mouse; details: RAW2647 cells stimulated with LPS; treated at 1, 5 or 10 μg/mL; FIG. 2
Description: A mouse macrophage cell line, which is RAW2647 (ATCCTIB-71; American Type Culture Collection) cells, was cultured using DMEM (Invitrogen) containing 10% fetal bovine serum (FBS; Invitrogen), sodium pyruvate, non-essential amino acids, penicillin G (100 IU/ml) and streptomycin (100 μg/ml).
Whether reactive oxygen species (ROS) production is inhibited when RAW2647 cells were treated with each of SPG-SH1, SPG-SH2 or SPG-SH3 was determined. Particularly. NADPH oxidase (NOX) activity and a mitochondrial ROS level were confirmed.
Particularly, after the RAW2647 cells were stimulated with LPS, SPG-SH1, SPG-SH2 or SPG-SH3 was treated at a concentration of 1, 5 or 10 μg/mL, respectively. The NADPH oxidase activity was confirmed by measuring the production of a superoxide in the RAW2647 cells by a lucigenin (bis-N-methylacridinium nitrate)-ECL method. The production of mitochondrial ROS was determined by staining the RAW2647 cells with 5 μM of MitoSOX for 30 minutes and then measuring mean fluorescence intensity (MFI) by FACS analysis.

NADPH oxidase [2] = experiment: NADPH oxidase activity in spleen of CLP mice; type: in vivo; details: spleen of CLP mouse; intraperitoneal at 3, 6 and 12 hours, doses of Table 1; FIG. 3
Description: (§1) The pharmaceutical composition of the present invention was intraperitoneally administered into a CLP mouse to confirm an antiinflammatory effect thereof. Specifically, the CLP mouse was anesthetized by administering pentothal sodium (50 mg/kg) intraperitoneally, and then its abdomen was dissected to expose the cecum. The cecum was ligated below the ileocecal valve, punctured twice with a 22-gauge needle, and then the abdomen was closed.
(§2) Sepsis mouse models induced by cecal ligation and puncture (CLP) were prepared using 6-week-old C57BL/6 female mice (Samtako, Korea). All animal-related procedures were approved by the Institutional Animal Care and Use Committee of Hanyang University. The CLP mice were intraperitoneally administered three times (at 3, 6 and 12 hours) with an administered substance shown in Table 1. SPG-SC is a peptide complex having a sequence in which SPG-SH3 sequences were randomly mixed, and as the antibiotic, a combination of gentamycin and cephalosporin was used.
(§3) Particularly, CLP mice (n=5) treated with the same administered substances as in Example <1-1> were prepared. […] Alternatively, the spleen of the CLP mouse was obtained and fractionated, a 5 μM reagent in a mitochondrial ROS activity assay kit (CA-R933) was treated for 60 minutes, and Ex/Em was measured at 490/525 nm. […]

CLP mice [3] = experiment: Total ROS in spleen of CLP mice; type: in vivo; details: spleen of CLP mouse; intraperitoneal at 3, 6 and 12 hours, doses of Table 1; FIG. 3
Description: as §1, §2, §3

CLP mice [4] = experiment: Survival of mice with CLP-induced sepsis; type: in vivo, mouse; details: approximately 60 hours after CLP treatment, doses of Table 1, FIG. 4
Description: as §1, §2
Specifically. CLP mice (n=7, twice; total 14) were treated with the administered substances as in Example <1-1> and monitored for 7 days.

TNF-α = TNF-α in peripheral blood of CLP mice (ELISA); type: in vivo, mouse; details: 20 hours after treatment, FIG. 5
Description: as §2
(§4) Whether a pro-inflammatory cytokine was inhibited when CLP mice were treated with a combination of SPG-SH3 and an antibiotic was determined.
(§5) Specifically, 20 hours after CLP mice were treated with the same administered substances as in Example <1-1>, the peripheral blood was obtained. The concentrations of TNF-α, IL-6, IL-1β and IL-18 in the blood were measured using an ELISA kit (BD Biosciences).

IL-6 = IL-6 in peripheral blood of CLP mice (ELISA); type: in vivo, mouse; details: 20 hours after treatment, FIG. 5
Description: as §2, §4, §5

IL-1β = IL-1β in peripheral blood of CLP mice (ELISA); type: in vivo, mouse; details: 20 hours after treatment, FIG. 5
Description: as §2, §4, §5

IL-18 = IL-18 in peripheral blood of CLP mice (ELISA); type: in vivo, mouse; details: 20 hours after treatment, FIG. 5
Description: as §2, §4, §5

NADPH oxidase, sequence (O70145 whole entry): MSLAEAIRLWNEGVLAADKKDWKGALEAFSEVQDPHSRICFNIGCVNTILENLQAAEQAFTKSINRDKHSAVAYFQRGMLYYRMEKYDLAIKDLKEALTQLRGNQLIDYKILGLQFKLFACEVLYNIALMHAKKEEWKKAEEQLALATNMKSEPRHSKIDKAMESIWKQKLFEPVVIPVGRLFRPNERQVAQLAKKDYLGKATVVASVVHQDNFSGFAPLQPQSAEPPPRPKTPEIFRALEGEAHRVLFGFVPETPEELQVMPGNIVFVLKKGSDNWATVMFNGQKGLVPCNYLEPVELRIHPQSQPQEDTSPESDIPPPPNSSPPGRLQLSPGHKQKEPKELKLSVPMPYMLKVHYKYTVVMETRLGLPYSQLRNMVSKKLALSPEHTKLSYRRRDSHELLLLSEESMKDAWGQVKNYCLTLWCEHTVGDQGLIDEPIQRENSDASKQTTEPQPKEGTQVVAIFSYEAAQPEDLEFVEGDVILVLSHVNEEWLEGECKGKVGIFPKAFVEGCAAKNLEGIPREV
NADPH oxidase, sequence (Q09014 whole entry, further chain): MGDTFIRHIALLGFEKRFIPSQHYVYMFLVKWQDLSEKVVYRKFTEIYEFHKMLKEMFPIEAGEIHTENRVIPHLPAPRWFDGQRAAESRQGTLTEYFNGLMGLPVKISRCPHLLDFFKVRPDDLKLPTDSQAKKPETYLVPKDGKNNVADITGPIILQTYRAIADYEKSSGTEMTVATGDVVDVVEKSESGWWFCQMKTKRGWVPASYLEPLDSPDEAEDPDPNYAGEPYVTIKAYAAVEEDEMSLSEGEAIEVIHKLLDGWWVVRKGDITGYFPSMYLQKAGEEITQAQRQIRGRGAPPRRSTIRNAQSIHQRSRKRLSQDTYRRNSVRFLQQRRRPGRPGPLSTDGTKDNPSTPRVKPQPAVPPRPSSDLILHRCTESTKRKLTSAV

| Substance | NADPH oxidase activity (NADPH oxidase [1]) | NADPH oxidase activity level (NADPH oxidase [2]) | total ROS level (CLP mice [3]) | survival rate (CLP mice [4]) | concentration of TNF-α (TNF-α) | concentration of IL-6 (IL-6) | concentration of IL-1β (IL-1β) | concentration of IL-18 (IL-18) |
| --- | --- | --- | --- | --- | --- | --- | --- | --- |
| SPG-SH3: β-glucan-peptide complex: schizophyllan (β-1,3-glucan) carboxylated and linked to amine group of SH3 peptide (SEQ ID NO: 4, ALLSFKKGGQTGYIPSNYV) (also: linked via amine group to carboxylated schizophyllan β-glucan) | lowest | significantly reduced | significantly reduced | approximately 70% | significantly reduced | significantly reduced | significantly reduced | significantly reduced |
| SH3: SH3 peptide, SEQ ID NO: 4, ALLSFKKGGQTGYIPSNYV, 19 amino acids, from SH3-1 and SH3-2 sequences of c-Src (SH3) | lowest | – | – | – | – | – | – | – |
